# Laboratory results reported in patent US10174013B2, “Benzimidazole derivatives as kinase inhibitors” (SELVITA S.A., priority 2012, dated 2019).
# pIC50: −log10 of the molar value. Where a name gives a salt, the structure may show the parent alone. Read-outs that look alike come from different tables or passages of the source.
# Columns and labels:
# HepG2 cells = assay: Growth inhibition, MTS assay, HepG2; format: cell-based, Human; settings: MTS cell viability, read-out: HepG2 ED50; for IC50: 72 hours; for pIC50: Homo sapiens, HepG2, 72 h
# Description: (§1) The following cell lines, were obtained and used in tests as outlined below: • Human myelomonocytic, biphenotypic leukemia MV4-11 cells (harboring a Flt3-ITD mutation); • Human Acute Myeloid Leukemia MOLM16 cells; • Human Acute Myeloid Leukemia MOLM13 cells (harboring a Flt3-ITD mutation); • Human Myeloid Leukemia KG-1 cells; • Human erythroleukemia HEL92 cells; • Human mantle cell lymphoma Jeko-1 cells; • Human hepatocellular carcinoma HepG2 cells; and • Human colon adenocarcinoma SW-480 cells.
# (§2) The assays were carried out according to the following protocol, which is described as an example for the MV4-11 cells:
# (§3) Ten thousand MV4-11 cells were inoculated into each well of a 96-well microplate (manufactured by Corning Corp.) using Iscove's MDM medium (culture medium) containing 10% fetal calf serum (FCS). The same day, a dimethyl sulfoxide (DMSO) solution of each test compound prepared in a concentration of 10 mmol/L was further diluted with DMSO to the desired concentrations (0.1, 0.5, 1, 2.5, 5 and 10 micromol/L), and the diluted solution was added to each well. The individual wells were further cultured in 5% carbon dioxide at 37° C. for 72 hours. […] Briefly, 10 μl MTS (3-(4,5-Dimethyl-2-thiazolyl)-5-(carboxymethoxyphenyl)-2-(4-sulfophenyl)-2H-tetrazolium was added to each well, and culturing was performed in 5% carbon dioxide at 37° C. for 2 hours. After this incubation and using a microplate spectrophotometer (Synergy 2 multi-mode microplate reader (BioTek)), the absorbance of each well was measured at 490 nm. The value for cells not incubated with a test compound was designated as 100%. By comparing these values with the absorbance difference obtained at the well in which each test compound was added, the cell viability (% viability) after treatment with the test compound was calculated.
# HEL92 cells = assay: Growth inhibition, MTS assay, HEL92; format: cell-based, Human; settings: MTS cell viability, read-out: HEL92 ED50; for IC50: 72 hours
# Description: as §1, §2, §3
# DYRK1 = DYRK1 (Homo sapiens (Human), UniProt Q13627); assay: ADP-Glo Kinase Assay, DYRK1; format: biochemical; settings: 1 μM compound; for inhibition at 1 µM: read-out: DYRK1A % INH (1 μM)
# Description: (§4) Compounds of the present invention were tested for their inhibitory activity against Pim-1, Pim-2, Pim-3, Flt3 wt, Flt3 ITD, CDK2/E and DYRK1. The testing of the compounds was carried out using the ADP-Glo™ Kinase Assay from Promega Corporation (Madison, Wis., USA).
# (§5) The ADP-Glo™ Kinase Assay is a luminescent ADP detection assay to measure kinase activity by quantifying the amount of ADP produced during a kinase reaction. The kinase assay is performed in kinase assay buffer (5 mM MOPS, pH 7.5, 5 mM MgCl2, 0.4 mM EDTA, 1.5 mM DTT). Test samples initially dissolved in DMSO at 10 mM were diluted with the assay buffer to 1000 nM. A 30 μL volume/well of a mixture of substrates containing ATP (final ATP concentration in each kinase assay was equal to its apparent ATP Km).
# (§6) The assay was performed in two steps: first, after the kinase reaction, an equal volume of ADP-Glo™ Reagent was added to terminate the kinase reaction and deplete the remaining ATP. Second, the Kinase Detection Reagent was added to simultaneously convert ADP to ATP and allowed the newly synthesized ATP to be measured using a luciferase/luciferin reaction. The luminescent signal generated was proportional to the ADP concentration produced and was correlated with kinase activity. A microplate spectrophotometer (Synergy 2 multi-mode microplate reader [BioTek]) was used for detecting the luminescence. The data was normalized and the percent of inhibition was obtained according to the following equation: […]
# FLT3wt = FLT3wt (Homo sapiens (Human), UniProt P36888); assay: ADP-Glo Kinase Assay, Flt3 wt; format: biochemical; settings: 1 μM compound; for inhibition at 1 µM: read-out: Flt3wt % INH (1 μM)
# Description: as §4, §5, §6
# Pim-1 = Pim-1 (Homo sapiens (Human), UniProt P11309); assay: ADP-Glo Kinase Assay, Pim-1; format: biochemical; settings: 1 μM compound; for inhibition at 1 µM: read-out: Pim-1 % INH (1 μM)
# Description: as §4, §5, §6
# MV4-11 cells = assay: Growth inhibition, MTS assay, MV4-11; format: cell-based, Human; settings: MTS cell viability, read-out: MV4-11 ED50; for IC50: 72 hours; for pIC50: Homo sapiens, MV4-11, 72 h
# Description: as §1, §2, §3
# Pim-3 = Pim-3 (Homo sapiens (Human), UniProt Q86V86); assay: ADP-Glo Kinase Assay, Pim-3; format: biochemical; settings: 1 μM compound; for inhibition at 1 µM: read-out: Pim-3 % INH (1 μM)
# Description: as §4, §5, §6
# Pim-2 = Pim-2 (Homo sapiens (Human), UniProt Q9P1W9); assay: ADP-Glo Kinase Assay, Pim-2; format: biochemical; settings: 1 μM compound; for inhibition at 1 µM: read-out: Pim-2 % INH (1 μM)
# Description: as §4, §5, §6
# CDK2/E = CDK2/E (Homo sapiens (Human), UniProt P24941); assay: ADP-Glo Kinase Assay, CDK2/E; format: biochemical; settings: 1 μM compound; for inhibition at 1 µM: read-out: CDK2/E % INH (1 μM)
# Description: as §4, §5, §6
# Chain of FLT3wt (P36888 27-993): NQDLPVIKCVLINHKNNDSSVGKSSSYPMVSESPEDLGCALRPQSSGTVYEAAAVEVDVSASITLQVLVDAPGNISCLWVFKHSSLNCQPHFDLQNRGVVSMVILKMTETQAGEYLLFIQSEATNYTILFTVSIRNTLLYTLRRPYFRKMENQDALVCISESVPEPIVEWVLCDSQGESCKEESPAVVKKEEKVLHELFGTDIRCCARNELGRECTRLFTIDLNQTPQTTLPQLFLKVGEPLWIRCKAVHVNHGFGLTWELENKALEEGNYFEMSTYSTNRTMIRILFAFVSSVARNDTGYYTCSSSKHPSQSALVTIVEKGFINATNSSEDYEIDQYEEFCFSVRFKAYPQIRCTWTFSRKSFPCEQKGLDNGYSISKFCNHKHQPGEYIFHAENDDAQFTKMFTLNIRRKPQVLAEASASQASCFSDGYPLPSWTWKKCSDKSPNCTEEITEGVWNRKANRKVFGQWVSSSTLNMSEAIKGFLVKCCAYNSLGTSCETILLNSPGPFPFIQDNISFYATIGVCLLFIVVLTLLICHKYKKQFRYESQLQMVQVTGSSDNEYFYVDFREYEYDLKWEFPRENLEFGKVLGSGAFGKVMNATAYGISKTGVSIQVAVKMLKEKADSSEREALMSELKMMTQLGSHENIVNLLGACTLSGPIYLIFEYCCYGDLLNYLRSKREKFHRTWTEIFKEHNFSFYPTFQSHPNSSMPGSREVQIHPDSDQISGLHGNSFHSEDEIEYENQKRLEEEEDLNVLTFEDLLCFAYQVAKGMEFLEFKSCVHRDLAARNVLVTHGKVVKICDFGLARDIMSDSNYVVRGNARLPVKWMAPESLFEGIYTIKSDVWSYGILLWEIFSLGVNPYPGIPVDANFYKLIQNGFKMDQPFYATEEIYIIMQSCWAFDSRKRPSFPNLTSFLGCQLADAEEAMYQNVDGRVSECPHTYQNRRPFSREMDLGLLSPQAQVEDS
# Chain of Pim-2 (Q9P1W9 whole entry): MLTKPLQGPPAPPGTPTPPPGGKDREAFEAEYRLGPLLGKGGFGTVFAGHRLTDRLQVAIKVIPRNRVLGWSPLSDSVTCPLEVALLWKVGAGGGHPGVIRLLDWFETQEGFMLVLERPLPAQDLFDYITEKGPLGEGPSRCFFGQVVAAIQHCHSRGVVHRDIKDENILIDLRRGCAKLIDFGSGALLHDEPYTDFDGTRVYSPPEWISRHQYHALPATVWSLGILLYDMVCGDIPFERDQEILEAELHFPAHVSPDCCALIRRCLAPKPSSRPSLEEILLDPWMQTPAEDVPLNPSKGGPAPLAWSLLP
# Chain of Pim-1 (P11309 whole entry): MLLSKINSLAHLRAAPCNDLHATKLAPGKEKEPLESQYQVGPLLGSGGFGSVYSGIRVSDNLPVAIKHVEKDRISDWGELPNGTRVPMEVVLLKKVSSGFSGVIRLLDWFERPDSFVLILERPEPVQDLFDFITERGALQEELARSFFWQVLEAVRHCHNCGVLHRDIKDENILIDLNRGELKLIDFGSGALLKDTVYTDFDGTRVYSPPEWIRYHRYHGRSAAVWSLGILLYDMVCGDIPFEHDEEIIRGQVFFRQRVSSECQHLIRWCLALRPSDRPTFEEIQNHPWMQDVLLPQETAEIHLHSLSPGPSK
SMILES,IC50 (HepG2 cells) [µM],IC50 (HEL92 cells) [µM],DYRK1A % INH (1 μM) (DYRK1) [%],Flt3wt % INH (1 μM) (FLT3wt) [%],Pim-1 % INH (1 μM) (Pim-1) [%],IC50 (MV4-11 cells) [µM],Pim-3 % INH (1 μM) (Pim-3) [%],Pim-2 % INH (1 μM) (Pim-2) [%],CDK2/E % INH (1 μM) (CDK2/E) [%],pIC50 (HepG2 cells),inhibition at 1 µM (Pim-2) [%],inhibition at 1 µM (FLT3wt) [%],inhibition at 1 µM (Pim-1) [%],inhibition at 1 µM (Pim-3) [%],inhibition at 1 µM (DYRK1) [%],pIC50 (MV4-11 cells),inhibition at 1 µM (CDK2/E) [%],"pIC50 (HEL92 cells; Homo sapiens, 72 h)"
CC(C)n1c(N2CCNC[C@H]2C)nc2c([N+](=O)[O-])c(Br)c(Br)cc21 [Example 1AO],1.7,3.8,15,26,95,0.6,59,,,,,,,,,,,
CC(C)Cn1c(N2CCC[C@@H](N)C2)nc2c([N+](=O)[O-])c(Br)c(Br)cc21.Cl [Example 1AU],1.9,5.8,,7,>95,2.4,68,52,<5,,,,,,,,,
Cl.NC1CCCN(c2nc3c([N+](=O)[O-])c(Br)c(Br)cc3n2CC2CC2)C1 (stereo not shown) [Example 1AV],4.5,,46,37,>95,1.4,91,54,12,,,,,,,,,
N[C@@H]1CCN(c2nc3c([N+](=O)[O-])c(Br)c(Br)cc3n2CC2CC2)C1 [Example 1BG],4.0,,>95,23,>95,1.6,>95,82,<5,,,,,,,,,
CC(C)n1c(N2CCC[C@H](N)C2)nc2c(C#N)c(Br)c(Br)cc21 [Example 1BJ],,,54,,,0.6,,,<5,5.32,82,31,> 95,> 95,,,,
CC(C)n1c(NCC2CNCCO2)nc2c(C#N)c(Br)c(Br)cc21 (stereo not shown) [Example 1BN],,,,,,,,,,5.29,29,< 5,> 95,77,21,5.72,< 5,
CC(C)n1c(N[C@H]2CNC[C@@H]2O)nc2c([N+](=O)[O-])c(Br)c(Br)cc21.Cl [Example 1CE],3.2,,37,12,>95,2.8,76,53,<5,,,,,,,,,
CCn1c(N2CC[C@@H](N)C2)nc2c([N+](=O)[O-])c(Cl)c(Cl)cc21 [Example 1CO],3.9,,30,12,>95,4.3,69,25,27,,,,,,,,,
COCCn1c(N2CC[C@@H](N)C2)nc2c([N+](=O)[O-])c(Br)c(Br)cc21 [Example 1CS],4.7,,37,10,>95,4.8,56,23,9,,,,,,,,,
CCn1c(N2CCC[C@H](N)C2)nc2c([N+](=O)[O-])c(Cl)c(Cl)cc21 [Example 1CT],6.0,,22,7,>95,2.7,64,28,6,,,,,,,,,
CCn1c(NCC(O)CN)nc2c([N+](=O)[O-])c(Br)c(Br)cc21 (stereo not shown) [Example 1G],,,,,,,,,,,34,6,76,57,12,,< 5,
CC(C)n1c(NCC(O)CN)nc2c([N+](=O)[O-])c(Br)c(Br)cc21 (stereo not shown) [Example 1W],,,,,,,,,,,,< 5,89,92,40,,< 5,
"CCn1c(N2CCNCC2)nc2c(C(F)(F)F)c(Br)c(Br)cc21 [Example 9A, 5,6-dibromo-1-ethyl-2-(piperazin-1-yl)-4-(trifluoromethyl)-1H-1,3-benzodiazolehydrochloride]",,,,,,,,,,5.82,15,76,> 95,66,77,6.52,< 5,
"COC(CN)CNc1nc2c(C#N)c(Br)c(Br)cc2n1C(C)C (stereo not shown) [Example 22AC, 2-[(3-amino-2-methoxypropyl)amino]-5,6-dibromo-1-(propan-2-yl)-1H-1,3-benzodiazole-4-carbonitrile]",,,,,,,,,,5.14,30,7,> 95,61,16,5.39,< 5,
"CC(C)n1c(N2CCCC(CO)C2)nc2c([N+](=O)[O-])c(Br)c(Br)cc21 (stereo not shown) [Example 22H, {1-[5,6-dibromo-4-nitro-1-(propan-2-yl)-1H-1,3-benzodiazol-2-yl]piperidin-3-yl}methanol]",,,,,,,,,,,,< 5,> 95,71,,,16,
"CC(C)n1c(N2CCOCC2)nc2c([N+](=O)[O-])c(Br)c(Br)cc21 [Example 22K, 5,6-dibromo-2-(morpholin-4-yl)-4-nitro-1-(propan-2-yl)-1H-1,3-benzodiazole]",,,,,,,,,,,40,23,> 95,85,28,5.39,< 5,
"CCn1c(Nc2ccccc2N)nc2c([N+](=O)[O-])c(Br)c(Br)cc21 [Example 22N, 1-N-(5,6-dibromo-1-ethyl-4-nitro-1H-1,3-benzodiazol-2-yl)benzene-1,2-diamine]",,,,,,,,,,5.38,23,< 5,82,44,21,5.59,< 5,
"CC(C)n1c(N2CCN[C@@H](C)C2)nc2c([N+](=O)[O-])c(Br)c(Br)cc21 [Example 22Z, 5,6-dibromo-2-[(3S)-3-methylpiperazin-1-yl]-4-nitro-1-(propan-2-yl)-1H-1,3-benzodiazole]",,,,,,,,,,5.80,37,73,> 95,85,63,6.15,,5.62
